Source: patent US20250129127A1, “Systems for Amplification of AAV Rep and Cap Proteins” (priority 2022, published 2025)
Where two headings read alike, the source gives them in different places.

Assays:
AAV viral genomes = experiment: Titer of capsids encapsidating the viral genome by nuclease treatment and qPCR after induction with doxycycline and tamoxifen; assay type: cell-based; conditions: 1000 uM MSX; Fuji cell culture media lacking Gln; compared to T223 cells not exposed to MSX
Method: (§1) Capsid ELISA was performed to determine total capsid titer. Nuclease treatment and qPCR were performed to determine the titer of capsids encapsidating the viral genome (e.g., the payload construct). […] Fuij 7-2 cell media with 4 mM glutamax was used in the cell culture.

AAV capsid = experiment: Capsid ELISA for total capsid titer after induction; assay type: cell-based; conditions: 1000 uM MSX; Fuji cell culture media lacking Gln; compared to T223 cells not exposed to MSX
Method: as §1

T223 cells = tested on: T223 cells
From the text: FIG. 9 provides a schematic for GS repression/inhibition for the pathways described in FIG. 8. A GS-KO P2 cell line is independently transfected with the various Rep/Cap GS constructs (see above and FIG. 8). P3 cells are selected in cell culture media lacking glutamine (-Gln) to select for cells expressing a higher level of GS.

With CS(=N)(=O)CC[C@H](N)C(=O)O (some centres unmarked) [MSX, methionine sulfoximine] the “viral genomes (vg/mL) in T223 cells” value (AAV viral genomes) was “increased levels”, the “viral particles (Capsids/mL) in T223 cells” value (AAV capsid) was “increased levels” and the “MSX concentration from which survival is impacted” value (T223 cells; P3 T223 cells expressing wild type GS) was ≥ 250 µM. For the same compound, the “MSX concentration from which survival is impacted” value (T223 cells; T223 cells expressing full length GS, selective media) was ≥ 250 µM and the reduction of viability (T223 cells; T223 cells, 500 uM MSX (of 50, 100, 250, 500 uM tested)) was “most effective in reducing viability”.
